Experimental data published in US7223759B2, “Antibacterial 3,5-diaminopiperidine-substituted aromatic and heteroaromatic compounds” (Anadys Pharmaceuticals, Inc., priority 2003, dated 2007).
Read-outs that look alike come from different tables or passages of the source.

Test system: Escherichia coli (ATCC25922) or Staphylococcus aureus (ATCC25923)
Assay: Antibacterial MIC, microdilution method in Mueller-Hinton medium
Format: cell-based
Conditions: Escherichia coli, 18 h, read-out: Potency (MIC)
In short: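 Read after 18 h incubation at 35° C, MIC is the lowest compound level that blocked growth. Compounds were tested in duplicate over 64–0.5 μg/ml two-fold dilutions using Mueller-Hinton microdilution per NCCLS standard.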

[1] = MIC in E. coli or S. aureus, two-fold serial dilutions 64 to 0.5 μg/ml in duplicate, 18 hours of incubation at 35° C.

Row | SMILES | MIC [1] | MIC
1 | Cc1ccc(S(=O)(=O)N(Cc2ccccc2)c2ccc(Nc3nc(N4CCNCC4)nc(N4C[C@H](N)C[C@H](N)C4)n3)cc2O)cc1 [N-Benzyl-N-{4-[4-((3R,5S)-3,5-diamino-piperidin-1-yl)-6-piperazin-1-yl-[1,3,5]triazin-2-ylamino]-2-hydroxy-phenyl}-4-methyl-benzenesulfonamide] | < 64 µg/mL | –
2 | Cl.NC1CCCN(c2nc(Nc3ccc(Cl)c(Cl)c3)nc(N3CCCCC3)n2)C1 [(3R,5S)-1-[4-(3-Amino-piperidin-1-yl)-6-(3,4-dichloro-phenylammino)-[1,3,5]triazin-22-yl]-piperidine-3,5-diamine] | < 64 µg/mL | –
3 | CCOc1ccc(C(=O)Nc2ccc(Nc3nc(N4CCCCC4)nc(N4CCCCC4)n3)cc2O)cc1.Cl [N-[4-(4-ethoxy-benzoylamino)-3-hydroxy-phenyl]-4,6-Bis-((3R,5S)-3,5-diamino-piperidin-1-yl)-1,3,5]triazine-2-amine] | < 16 µg/mL | –
4 | Cc1cc(NC(=O)c2cccc([N+](=O)[O-])c2O)ccc1Nc1nc(N2CCCCC2)nc(N2CCCCC2)n1.Cl [N-[4-(2-hydroxy-3-nitro-benzoylamino)-2-methyl-pphenyl]-4,6-Bis-((3R,5S)-3,5-diamino-piperidin-1-yl)-[1,3,5]triazine-2-amine] | > 64 µg/mL | –
5 | Cc1cc(=O)oc2cc(Nc3nc(N4C[C@H](N)C[C@H](N)C4)nc(N4C[C@H](O)C[C@H]4CN)n3)ccc12 [7-[4-((2S,4R)-2-Aminomethyl-4-hydroxy-pyrrolidin-1-yl)-6-((3R,5S)-3,5-diamino-piperidin-1-yl)-[1,3,5]triazin-2-ylamino]-4-methyl-chromen-2-one] | – | > 64 µg/mL
6 | N[C@@H]1C[C@H](N)CN(c2nc(Nc3ccc(S(=O)(=O)Nc4ccc5cn[nH]c5c4)cc3)nc(N3C[C@@H](N)[C@@H](N)C3)n2)C1 [4-[4-((3R,5S)-3,5-Diamino-piperidin-1-yl)-6-((3R,4S)-3,4-diamino-pyrrolidin-1-yl)-[1,3,5]triazin-2-ylamino]-N-(1H-indazol-6-yl)-benzenesulfonamide] | – | > 64 µg/mL
7 | NC[C@@H]1CN(c2nc(Nc3ccc(NC(=O)c4ccc5ccccc5c4O)cc3)nc(N3C[C@H](N)C[C@H](N)C3)n2)CC[C@@H]1O [1-Hydroxy-naphthalene-2-carboxylic acid {4-[4-((3R,4S)-3-aminomethyl-4-hydroxy-piperidin-1-yl)-6-((3R,5S)-3,5-diamino-piperidin-1-yl)-[1,3,5]triazin-2-ylamino]-phenyl}-amide] | – | < 16 µg/mL
8 | COc1ccc(Nc2nc(N3C[C@H](N)C[C@H](N)C3)nc(N3C[C@H](N)C[C@H](N)C3)n2)c([N+](=O)[O-])c1 [N-(4-methoxy-2-nitro-phenyl)-4,6-Bis-((3R,5S)-3,5-diamino-piperidin-1-yl)-[1,3,5]triazine-2-amine] | – | > 64 µg/mL
9 | Cl.N[C@@H]1C[C@@H](N)CN(c2nc(N3CCC4CCCCC4C3)nc(N3C[C@H](N)C[C@H](N)C3)n2)C1 (stereo partly drawn) [2,4-Biss-((3R,5S)-3,5-diamino-piperidin-1-yl)-6-(4-p-tolyl-piperazin-1-yl)-[1,3,5]triazine] | > 64 µg/mL | –
10 | COc1ccc(NC(=O)c2ccc(Nc3nc(N4C[C@H](N)C[C@H](N)C4)nc(N4C[C@H](N)C[C@H](N)C4)n3)cc2O)cc1 [N-[3-hydroxy-4-(4-methoxy-phenylcarbamoyl)-phenyl]-4,6-Bis-((3R,5S)-3,5-diamino-piperidin-1-yl)-[1,3,5]triazine-2-amine] | – | < 64 µg/mL
11 | Cl.O=C(CC(=O)c1ccc(Nc2nc(N3CCCCC3)nc(N3CCCCC3)n2)cc1)Nc1cccc(Br)c1 [N-{4-[2-(3-bromo-phenylcarbamoyl)-acetyl]-phenyl}-4,6-Biss-((3R,5S)-3,5-diamino-piperidin-1-yl)-[1,3,5]triazine-2-amine] | < 16 µg/mL | –
12 | Cc1csc2c(NNc3nc(N4C[C@H](N)C[C@H](N)C4)nc(N4C[C@H](N)C[C@H](N)C4)n3)ncnc12.Cl [N-(4,6-Bis-((3R,5S)-3,5-diamino-piperidin-1-yl)-[1,3,5]triazin-2-yl)-N′-(7-Methyl-thieno[3,2-d]pyrimidin-4-yl)-hydrazine] | > 64 µg/mL | –
13 | N[C@@H]1C[C@H](N)CN(c2nc(Nc3ccc(C(=O)CC(=O)Nc4ccc5c(c4)OC(F)(F)O5)cc3)nc(N3C[C@@H](N)C[C@H]3CO)n2)C1 [3-{4-[4-((2S,4S)-4-Amino-2-hydroxymethyl-pyrrolidin-1-yl)-6-((3R,5S)-3,5-diamino-piperidin-1-yl)-[1,3,5]triazin-2-ylamino]-phenyl}-N-(2,2-difluoro-benzo[1,3]dioxol-5-yl)-3-oxo-propionamide] | – | < 16 µg/mL
14 | Cc1ccc(C(=O)Nc2ccc(Nc3nc(N4C[C@H](N)C[C@H](N)C4)nc(N4C[C@H](N)C[C@H](N)C4)n3)cc2C)c(O)c1 [N-[4-(2-hydroxy-4-methyl-benzoylamino)-3-methyl-phenyl]-4,6-Bis-((3R,5S)-3,5-diamino-piperidin-1-yl)-[1,3,5]triazine-2-amine] | – | < 64 µg/mL
15 | Cc1ccc(S(=O)(=O)N(Cc2ccccc2)c2ccc(Nc3nc(N4C[C@H](N)C[C@H](N)C4)nc(N4CCC[C@@H](O)C4)n3)c(O)c2)cc1 [N-Benzyl-N-{4-[4-((3R,5S)-3,5-diamino-piperidin-1-yl)-6-((R)-3-hydroxy-piperidin-1-yl)-[1,3,5]triazin-2-ylamino]-3-hydroxy-phenyl}-4-methyl-benzenesulfonamide] | – | < 64 µg/mL
16 | Cl.NC1CCN(c2nc(Nc3ccc(Cl)c(Cl)c3)nc(N3C[C@H](N)C[C@H](N)C3)n2)CC1 [(3R,5S)-1-[4-(4-Amino-piperidin-1-yl)-6-(3,4-dichloro-phenylamino)-[1,3,5]triazin-2-yl]-piperidine-3,5-diamine] | < 64 µg/mL | –
17 | CC12CC[C@](C(=O)Nc3ccc(Nc4nc(N5C[C@H](N)C[C@H](N)C5)nc(N5C[C@H](N)C[C@H](N)C5)n4)cc3O)(OC1=O)C2(C)C [(S)-4,7,7-Trimethyl-3-oxo-2-oxa-bicyclo[2.2.1]heptane-1-carboxylic acid {4-[4,6-bis-((3R,5S)-3,5-diamino-piperidin-1-yl)-[1,3,5]triazin-2-ylamino]-2-hydroxy-phenyl}-amide] | < 64 µg/mL | –
18 | N[C@@H]1C[C@H](N)CN(c2nc(Nc3ccc(C(=O)CC(=O)Nc4ccc(F)cc4)cc3)nc(N3C[C@H](N)C[C@H](N)C3)n2)C1 [N-{4-[2-(4-fluoro-phenylcarbamoyl)-acetyl]-phenyl}-4,6-Bis-((3R,5S)-3,5-diamino-piperidin-1-yl)-[1,3,5]triazine-2-amine] | – | < 16 µg/mL
19 | N[C@@H]1C[C@H](N)CN(c2nc(Nc3ccc(NC(=O)c4c(O)ccc5ccccc45)c(O)c3)nc(N3C[C@H](N)C[C@H](N)C3)n2)C1 [N-{3-hydroxy-4-[(2-hydroxy-naphthalene-1-carbonyl)-amino]-phenyl}-4,6-Bis-((3R,5S)-3,5-diamino-piperidin-1-yl)-[1,3,5]triazine-2-amine] | – | < 16 µg/mL
20 | COc1ccc(OC)c(NC(=O)CC(=O)c2ccc(Nc3nc(N4C[C@H](N)C[C@H](N)C4)nc(N4C[C@H](N)C[C@H](N)C4)n3)cc2)c1 [N-{4-[2-(2,5-dimethoxy-phenylcarbamoyl)-acetyl]-phenyl}-4,6-Bis-((3R,5S)-3,5-diamino-piperidin-1-yl)-[1,3,5]triazine-2-amine] | – | < 64 µg/mL
21 | COCCNC(=O)c1ccc(Nc2nc(N3C[C@H](N)C[C@H](N)C3)nc(N3C[C@H](N)C[C@H](N)C3)n2)cc1O [N-[3-hydroxy-4-(2-methoxy-ethylcarbamoyl)-phenyl]-4,6-Bis-((3R,5S)-3,5-diamino-piperidin-1-yl)-[1,3,5]triazine-2-amine] | > 64 µg/mL | –
22 | N[C@@H]1C[C@H](N)CN(c2nc(Nc3ccc(NC(=O)c4ccc(Cl)cc4O)c(Br)c3)nc(N3C[C@H](N)C[C@H](N)C3)n2)C1 [N-[3-bromo-4-(4-chloro-2-hydroxy-benzoylamino)-phenyl]-4,6-Bis-((3R,5S)-3,5-diamino-piperidin-1-yl)-[1,3,5]triazine-2-amine] | – | < 16 µg/mL
23 | O=S(=O)(Nc1ccc2cn[nH]c2c1)c1ccc(Nc2nc(N3CCCCC3)nc(N3CCN(c4ccncc4)CC3)n2)cc1 [4-[4-((3S,5R)-3,5-DSiamino-piperidin-1-yl)-6-(4-pyridin-4-yl-piperazin-1-yl)-[1,3,5]triazin-2-ylamino]-N-(1H-indazol-6-yl)-benzenesulfonamide] | < 64 µg/mL | –
24 | COc1cc(Nc2nc(N3CCCCC3)nc(N3CCCCC3)n2)ccc1NC(=O)c1ccc(Cl)cc1O.Cl [N-[4-(4-chlorro-2-hydroxy-benzoylamino)-3-methoxy-phenyl]-4,6-Bis-((3R,5S)-3,5-diamino-piperidin-1-yl)-[1,3,5]triazine-2-amine] | < 16 µg/mL | –
25 | N[C@@H]1C[C@H](N)CN(c2nc(Nc3ccc(NC(=O)C(=O)c4c[nH]c5ccccc45)c(O)c3)nc(N3C[C@H](N)C[C@H](N)C3)n2)C1 [N-{3-hydroxy-4-[2-(1H-indol-3-yl)-2-oxo-acetylamino]-phenyl}-4,6-Bis-((3R,5S)-3,5-diamino-piperidin-1-yl)-[1,3,5]triazine-2-amine] | – | < 16 µg/mL
26 | Cc1noc(NS(=O)(=O)c2ccc(Nc3nc(N4C[C@H](N)C[C@H](N)C4)nc(N4C[C@H](N)C[C@H](N)C4)n3)cc2)c1C [N-[4-(3,4-dimethyl-isoxazol-5-ylsulfamoyl)-phenyl]-4,6-Bis-((3R,5S)-3,5-diamino-piperidin-1-yl)-[1,3,5]triazine-2-amine] | – | > 64 µg/mL
27 | Cc1ccc(C(=O)Nc2ccc(Nc3nc(NC4CCNCC4)nc(N4C[C@H](N)C[C@H](N)C4)n3)cc2O)cc1 [N-{4-[4-((3R,5S)-3,5-Diamino-piperidin-1-yl)-6-(piperidin-4-ylamino)-[1,3,5]triazin-2-ylamino]-2-hydroxy-phenyl}-4-methyl-benzamide] | – | < 16 µg/mL
28 | Cc1ccc(C(=O)Nc2ccc(Nc3nc(N(CCN)CCN)nc(N4CCCCC4)n3)cc2O)cc1.Cl [N-{4-[4-[Bis-(2-amino-ethyl)-amino]-6-((3R,5S)-3,5-diamino-piperidin-1-yl-[1,3,5]triazin-2-ylamino]-2-hydroxy-phenyl}-4-methyl-benzamide] | < 64 µg/mL | –
